# Measured values published in PubChem BioAssay AID2141 (Sanford-Burnham Center for Chemical Genomics, 2009).
# Activity calls are given as the source filed them. The rule behind the calls is not given here.
# Molecular target: E3 ubiquitin-protein ligase SIAH1 (Homo sapiens) (UniProt Q8IUQ4)
# Assay: inhibitors of Siah-1 ligand interaction – biochemical, TR-FRET, dose response (AID 2141)
# Details: TR-FRET biochemical assay, Siah-1 binding
row,Structure (SMILES),IC50
1,COC(=O)c1cc(NC(=O)c2ccccc2)c(=O)oc1/C=C/Nc1ccc(Oc2ccccc2)cc1,> 200 µM (inactive)
2,O=C(CCn1ccc2ccccc21)NC1CCCc2ccccc21 (configuration not stated),> 200 µM (inactive)
3,CSc1n[nH]c(NCc2ccc(Cl)cc2)n1,> 200 µM (inactive)
4,CCOC(=O)C1(C)C=C(Nc2ccc(O)cc2)C(=O)N1c1ccc(O)cc1 (configuration not stated),inactive
5,Cc1cc(C)n(-c2ccc(Cl)c(C(=O)Nc3cc(C(F)(F)F)ccc3Cl)n2)n1,> 200 µM (inactive)
6,Cc1ccccc1NC(=O)CN1C(=O)N/C(=C\c2ccccc2OCc2ccc(C(=O)O)cc2)C1=O,5.04 µM
7,CCOC(=O)C1=C(C)N=c2s/c(=C\c3ccc(OCC(=O)O)cc3)c(=O)n2C1c1ccc(Cl)cc1 (configuration not stated),> 200 µM (inactive)
8,COc1cc(CC(=O)NCc2ccc3c(c2)OCO3)cc(OC)c1OC,inactive
9,O=C(CCN1CCN(Cc2ccccc2)CC1)Nc1cccc(Cl)c1,> 200 µM (inactive)
10,Cc1cc(C)c(C#N)c(Nc2ccccc2C)n1,> 200 µM (inactive)
11,O=C(O)c1cc(Cl)c(Cl)cc1C(=O)Nc1cccc2cccnc12,7.1 µM
12,O=C(N/N=C/c1ccc(OC(=O)c2cccs2)cc1)c1cccc(F)c1,1.79 µM
13,O=S(=O)(O)c1cc(O)c2c(O)c(N=Nc3cc(Cl)ccc3O)c(S(=O)(=O)O)cc2c1,2.14 µM
14,CN1/C(=C\C=C\C2=[N+](C)c3ccc4ccccc4c3C2(C)C)C(C)(C)c2ccccc21,> 200 µM (inactive)
15,CCNc1ccc(C(=O)O)cc1N,3.96 µM
16,Cc1cc(C)n2ncc(C(=O)Nc3ccc4c(c3)OCO4)c2n1,inactive
17,CC(=O)c1ccc(S(=O)(=O)Nc2ccc(-c3ccc4nnc(C)n4n3)cc2)cc1,9.93 µM
18,CC(=O)c1ccc(NC(=O)CC2Nc3cccc4cccc(c34)NC2=O)cc1 (configuration not stated),8.51 µM
19,O=S(=O)(Nc1nc2ccccc2nc1Nc1ccc(N2CCOCC2)cc1)c1cc(Cl)ccc1Cl,> 200 µM (inactive)
20,COC(=O)C1C=C2c3cccc4[nH]cc(c34)CC2N(C)C1 (configuration not stated),1.85 µM
21,CCn1c(O)c(C=Nc2ccc(N3CCOCC3)cc2)c(=O)n(CC)c1=S,> 200 µM (inactive)
22,COc1cccc(CCC(=O)N(C)C2CCCN(Cc3ccccc3F)C2)c1 (configuration not stated),> 200 µM (inactive)
23,CC(C)(C)c1cc(-c2csc(Nc3ccccc3)[n+]2Cc2ccc(C(=O)O)cc2)cc(C(C)(C)C)c1O,6.69 µM
24,O=C(Nc1ccc(Cl)cc1)OCc1cn(-c2ccccc2)nn1,> 200 µM (inactive)

row,Structure (SMILES),IC50
1,CN(Cc1c(C(=O)N/N=C/c2ccc(F)cc2)nnn1-c1nonc1N)C1CCCCC1,> 200 µM (inactive)
2,Cc1ccn2c(C(=O)CSc3ccc(Cl)cc3Cl)c(C)nc2c1,> 200 µM (inactive)
3,S=c1[nH]nc(Cc2cccc3ccccc23)n1-c1ccccc1,> 200 µM (inactive)
4,COc1cc(/C=C2/SC(=S)N(Cc3ccccc3)C2=O)cc(Cl)c1O,> 200 µM (inactive)
5,CCCCn1c(NC(=O)c2ccco2)c(S(=O)(=O)c2ccc(C)cc2)c2nc3ccccc3nc21,> 200 µM (inactive)
6,CCCCN(Cc1cc2cc(OC)ccc2[nH]c1=O)S(=O)(=O)c1ccc(C)cc1,17.2 µM
7,O=c1[nH]c2ccc(S(=O)(=O)N3CCCCC3)cc2s1,> 200 µM (inactive)
8,COC(=O)c1cccc(Cn2c(Cl)c(/C=N/NC(=O)c3ccccc3Cl)sc2=O)c1,19 µM
9,COc1ccc(CCNC(=O)c2ccc(S(=O)(=O)N(C)c3ccccc3)cc2)cc1OC,> 200 µM (inactive)
10,Cc1ccc(NC(=O)CCC(=O)NNC(=O)c2ccccc2[N+](=O)[O-])c(C)c1,> 200 µM (inactive)
11,Cc1ccc(-n2cccn2)c([C@@H]2C[C@H]3CN(C)C(=O)[C@]34CCCN24)c1,> 200 µM (inactive)
12,Cc1ccc(S(=O)(=O)NN=C2C3CC4CC(C3)CC2C4)cc1[N+](=O)[O-],> 200 µM (inactive)
13,O=c1ccc2c(-c3ccccc3)c3ccc(O)cc3oc-2c1,> 200 µM (inactive)
14,CCN(CC)CCOC(=O)c1ccc(N/C=C(/C#N)c2nc(-c3cc4ccccc4oc3=O)cs2)cc1,> 200 µM (inactive)
15,O=C(Nc1cccc(Oc2ccc(C(=O)O)c(C(=O)O)c2)c1)c1ccc(-c2ccccc2)cc1,11.6 µM
16,Cc1ccc(S(=O)(=O)N2CCC(=O)N(C(COCc3cccc(C)c3)Cc3ccccc3)CC2)cc1 (configuration not stated),> 200 µM (inactive)
17,Cc1ccc(OCCCN2CCOCC2)cc1,> 200 µM (inactive)
18,CC(C)COc1ccc(-c2nn(-c3ccccc3)cc2/C=C2/SC(=S)N(CC(=O)O)C2=O)cc1,3.91 µM
19,COc1ccc(C(C(=O)NCc2ccccc2)N(Cc2ccco2)C(=O)c2cnccn2)cc1 (configuration not stated),> 200 µM (inactive)
20,Nc1c(C(=O)NCc2ccco2)c2nc3ccccc3nc2n1CCc1ccccc1,1.77 µM
21,O=C(CSc1ccc(Br)c2cccc(Cl)c12)Nc1ccc(S(=O)(=O)Nc2nccs2)cc1,> 200 µM (inactive)
22,O=C(NCc1c(F)cccc1F)c1cc(COc2c(F)cccc2F)on1,> 200 µM (inactive)
23,Fc1ccc(/C=N/NC(=S)Nc2cccnc2)cc1F,inactive
